Assay results from the NIST ThermoML archive (doi:10.1021/je1002237).
Numbers after ± are expanded uncertainties.

Experiment: xn = mol fraction of the nth substance listed
Details: 101 kPa, Liquid

CC1COC(=O)O1 (stereo not given) [4-methyl-1,3-dioxolan-2-one] + CCOS(=O)(=O)[O-].CCn1cc[n+](C)c1
mass density [kg/m3]
Details	278.15 K	283.15 K	288.15 K	293.15 K	298.15 K	303.15 K	308.15 K
x1 = 0.0266	1250.69 ± 1.1	1247.12 ± 1.1	1243.68 ± 1.1	1240.27 ± 1.1	1236.86 ± 1.1	1233.45 ± 1.1	1230.06 ± 1.1
x1 = 0.0513	1250.41 ± 1.1	1246.82 ± 1.1	1243.39 ± 1.1	1239.97 ± 1.1	1236.53 ± 1.1	1233.11 ± 1.1	1229.69 ± 1
x1 = 0.0755	1250.13 ± 1.1	1246.55 ± 1.1	1243.1 ± 1.1	1239.64 ± 1.1	1236.19 ± 1.1	1232.74 ± 1	1229.3 ± 1
x1 = 0.1231	1249.6 ± 1.1	1246.04 ± 1.1	1242.54 ± 1.1	1239.04 ± 1	1235.55 ± 1	1232.06 ± 1	1228.58 ± 1
x1 = 0.1825	1248.89 ± 1	1245.35 ± 1	1241.79 ± 1	1238.2 ± 1	1234.68 ± 1	1231.13 ± 1	1227.6 ± 0.99
x1 = 0.2548	1248.05 ± 1	1244.41 ± 1	1240.76 ± 1	1237.11 ± 1	1233.49 ± 0.99	1229.88 ± 0.98	1226.27 ± 0.97
x1 = 0.3178	1247.17 ± 1	1243.45 ± 0.99	1239.73 ± 0.98	1236.01 ± 0.98	1232.32 ± 0.97	1228.64 ± 0.96	1224.96 ± 0.95
x1 = 0.3778	1246.4 ± 0.98	1242.61 ± 0.98	1238.81 ± 0.97	1235.04 ± 0.96	1231.27 ± 0.95	1227.52 ± 0.94	1223.78 ± 0.93
x1 = 0.4859	1244.38 ± 0.95	1240.42 ± 0.95	1236.47 ± 0.94	1232.54 ± 0.93	1228.62 ± 0.92	1224.71 ± 0.91	1220.83 ± 0.9
x1 = 0.5725	1242.6 ± 0.93	1238.5 ± 0.92	1234.4 ± 0.91	1230.34 ± 0.91	1226.28 ± 0.9	1222.25 ± 0.89	1218.22 ± 0.88
x1 = 0.6971	1239.08 ± 0.9	1234.73 ± 0.89	1230.4 ± 0.88	1226.09 ± 0.88	1221.79 ± 0.87	1217.52 ± 0.86	1213.25 ± 0.85
x1 = 0.7812	1235.9 ± 0.88	1231.35 ± 0.87	1226.82 ± 0.86	1222.31 ± 0.85	1217.81 ± 0.85	1213.33 ± 0.84	1208.86 ± 0.83
x1 = 0.8427	1232.95 ± 0.87	1228.23 ± 0.86	1223.51 ± 0.85	1218.83 ± 0.84	1214.15 ± 0.83	1209.49 ± 0.82	1204.84 ± 0.81
x1 = 0.8893	1230.36 ± 0.86	1225.48 ± 0.85	1220.62 ± 0.84	1215.78 ± 0.83	1210.95 ± 0.82	1206.14 ± 0.81	1201.34 ± 0.8
x1 = 0.9259	1227.81 ± 0.85	1222.79 ± 0.84	1217.79 ± 0.83	1212.81 ± 0.82	1207.84 ± 0.81	1202.89 ± 0.8	1197.94 ± 0.79
x1 = 0.9554	1225.35 ± 0.84	1220.2 ± 0.83	1215.07 ± 0.82	1209.96 ± 0.81	1204.85 ± 0.8	1199.76 ± 0.79	1194.68 ± 0.78
x1 = 0.9797	1223.22 ± 0.83	1217.97 ± 0.82	1212.73 ± 0.81	1207.51 ± 0.8	1202.3 ± 0.79	1197.09 ± 0.78	1191.9 ± 0.77
x1 = 1	1220.93 ± 0.83	1215.57 ± 0.82	1210.21 ± 0.81	1204.88 ± 0.8	1199.55 ± 0.78	1194.23 ± 0.77	1188.91 ± 0.76

CC(C)=O [acetone] + CCOS(=O)(=O)[O-].CCn1cc[n+](C)c1
x1 = 1
Details	mass density [kg/m3]
278.15 K	807.75 ± 0.67
283.15 K	802.15 ± 0.68
288.15 K	796.52 ± 0.69
293.15 K	790.86 ± 0.7
298.15 K	785.13 ± 0.71
303.15 K	779.38 ± 0.72
308.15 K	773.58 ± 0.73

CC#N [acetonitrile] + CCOS(=O)(=O)[O-].CCn1cc[n+](C)c1
x1 = 1
Details	mass density [kg/m3]
278.15 K	798.01 ± 0.68
283.15 K	792.69 ± 0.69
288.15 K	787.33 ± 0.7
293.15 K	781.97 ± 0.71
298.15 K	776.56 ± 0.72
303.15 K	771.14 ± 0.73
308.15 K	765.68 ± 0.74
